Laboratory results reported in patent US20130165489A1, “Small Molecule Modulators of HIV-1 Capsid Stability and Methods Thereof” (The Trustees of the University of Pennsylvania, priority 2010, published 2013).
Entries after “also recorded” stand apart in the source; their conditions may differ.

Key:
HIV-1 CA = HIV-1 CA (Human immunodeficiency virus type 1 group M subtype B, UniProt P12493); assay: In vitro CA assembly assay (turbidity); assay type: biochemical; conditions: CA 30 μM; compound 147 μM; turbidity at 350 nm
Experimental: The effect of compound CMPD-E on the assembly of HIV-1 CA was measured by monitoring turbidity at 350 nm using a modification of the method of Tian et al. (Tian et al., 2009, Bioorg. Med. Chem. Lett. 19:2162-67). Briefly, 1.0 μL of concentrated CMPD-E in 100% DMSO was added to a 74-μL aqueous solution (2 mL of 5 M NaCl mixed with 1 mL of 200 mM NaH2PO4, pH 8.0). To initiate the assembly reaction, 25 μL of purified CA protein (120 μM) was added. An identical reaction mixture was prepared, omitting the compound (i.e., DMSO only). Samples were allowed to equilibrate for 2 min prior to reading. Readings were taken at 350 nm every 10 s for 30 min. CA was used at a final concentration of 30 μM, and CMPD-E at a final concentration of 147 μM.

[1] = tested on: HIV-1 92UG024 (subtype D clinical isolate); assay: Anti-HIV efficacy in human PBMCs, isolate 92UG024; assay type: cell-based
Experimental: (§1) HIV human peripheral blood mononuclear cell (PBMC) assays were performed as described previously (Lanier et al., 2010, Antimicrob. Agents Chemother. 54:2901-09; Ptak et al., 2008, Antimicrob. Agents Chemother. 52:1302-17). Briefly, fresh PBMCs, seronegative for HIV and hepatitis B virus (HBV), were isolated from blood samples of the screened donors (Biological Specialty Corporation, Colmar, Pa.) by using lymphocyte separation medium (LSM; density, 1.078±0.002 g/ml; Cellgro; Mediatech, Inc.) by following the manufacturer's instructions. Cells were stimulated by incubation in 4 μg/mL phytohemagglutinin (PHA; Sigma) for 48 to 72 h. Mitogenic stimulation was maintained by the addition of 20 U/mL recombinant human interleukin-2 (rhIL-2; R&D Systems, Inc.) to the culture medium. PHA-stimulated PBMCs from at least two donors were pooled, diluted in fresh medium, and added to 96-well plates at 5×10^4 cells/well. Cells were infected (final multiplicity of infection [MOI] of ≅0.1) in the presence of 9 different concentrations of test compounds (triplicate wells/concentration) and incubated for 7 days. […] Following removal of supernatant samples, compound cytotoxicity was measured by the addition of 3-(4,5-dimethylthiazol-2-yl)-5-(3-carboxymethoxyphenyl)-2-(4-sulfophenyl)-2H-tetrazolium (MTS; CellTiter 96 reagent; Promega) by following the manufacturer's instructions. […]

HIV-1NL4-3 CA = HIV-1NL4-3 CA (Human immunodeficiency virus type 1 group M subtype B, UniProt P12493); assay: Isothermal titration calorimetry; assay type: binding
Experimental: Isothermal titration calorimetric experiments were performed at 10, 15, and 25° C. using a high-precision ITC200 titration calorimetric system from MicroCal LLC (Northampton, Mass.). All titrations were performed by adding CMPD-E in steps of […]. All solutions contained within the calorimetric cell and injector syringe were prepared in the same buffer, 25 mM Tris-HCl, pH 7.5 with 150 mM NaCl and 3% DMSO. The concentrations of CA and CMPD-E were 35 and 600 μM, respectively. The heat evolved upon injection of CMPD-E was obtained from the integral of the calorimetric signal. The heat associated with the binding reaction was obtained by subtracting the heat of dilution from the heat of reaction. The individual heats were plotted against the molar ratio, and the values for the number of binding sites (n), the enthalpy change (ΔH) and dissociation constant (KD=1/KA) were obtained by nonlinear regression of the data.

Chikungunya = assay: CPE assay, Chikungunya; assay type: cell-based
JEV = assay: CPE assay, JEV; assay type: cell-based, Japanese encephalitis virus
[2] = tested on: HIV-1 89BZ167 (subtype B clinical isolate); assay: Anti-HIV efficacy in human PBMCs, isolate 89BZ167; assay type: cell-based
Experimental: as §1

RSV = assay: CPE assay, RSV; assay type: cell-based, respiratory syncytial virus
[3] = Human immunodeficiency virus 1, PBMC

In the case of O=C(O)c1ccc(-c2nc(-c3ccccc3)c(-c3ccccc3)[nH]2)cc1 [CMPD-E, 4-(4,5-diphenyl-1H-imidazol-2-yl)benzoic acid], the “effect on assembly of HIV-1 CA in vitro” value (HIV-1 CA) is reported as “prevents the assembly of the capsid; also recorded: prevented assembly of CA in vitro; also recorded: preventing the assembly of the capsid”, the IC50 [1, 3] is reported as 51.8 µM and the “Antiviral index (TC50/IC50)” value ([1]; PBMC) is reported as >1.93. For the same compound, the Kd (HIV-1NL4-3 CA) was 85 µM, the “change in Gibbs energy” value (HIV-1NL4-3 CA; ITC, 25° C.) was -6.6 kcal/mol and the “change in enthalpy (ΔH)” value (HIV-1NL4-3 CA; ITC, 25° C.) was -7.3 kcal/mol. For the same compound, the “change in entropy (ΔS)” value (HIV-1NL4-3 CA; ITC, 25° C.) was −5.0 cal/(K×mol), the heat capacity change (HIV-1NL4-3 CA; from temperature dependence of the enthalpy) was −220 cal/(K×mol) and the “effect on Chikungunya virus replication” value (Chikungunya) was “no inhibitory effects”. The IC50 (Chikungunya; Chikungunya virus) was > 100 µM, the “effect on Japanese encephalitis virus replication” value (JEV) was “no inhibitory effects” and the IC50 (JEV; Japanese encephalitis virus) was > 100 µM. For the same compound, the IC50 [2, 3] was 92.9 µM, the “Antiviral index (TC50/IC50)” value ([2]; PBMC) was >1.08 and the “activity against RSV” value (RSV; CPE assay, up to 100 μM) was “no inhibitory effects”. The IC50 (RSV; human respiratory syncytial virus, RSV, Vero cells) was > 100 µM.
